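A five-concentration, 48-hour dose response in 96-well plates underlies each endpoint, interpolated linearly between surrounding concentrations. TGI: total growth inhibition.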
Legend:
Experiment in all cases: growth of human tumour cells (NCI), 48 h
SF-295 CNS = tested on: SF-295 CNS
CCRF-CEM leukemia = tested on: CCRF-CEM leukemia
IGROV1 ovarian = tested on: IGROV1 ovarian
HL-60(TB) leukemia = tested on: HL-60(TB) leukemia
NCI-H23 lung = tested on: NCI-H23 lung
HCT-15 colon = tested on: HCT-15 colon
CAKI-1 renal = tested on: CAKI-1 renal
K-562 leukemia = tested on: K-562 leukemia
UACC-257 melanoma = tested on: UACC-257 melanoma
HT29 colon = tested on: HT29 colon

| SMILES | TGI (SF-295 CNS) | TGI (CCRF-CEM leukemia) | TGI (IGROV1 ovarian) | TGI (HL-60(TB) leukemia) | TGI (NCI-H23 lung) | TGI (HCT-15 colon) | TGI (CAKI-1 renal) | TGI (K-562 leukemia) | TGI (UACC-257 melanoma) | TGI (HT29 colon) |
| --- | --- | --- | --- | --- | --- | --- | --- | --- | --- | --- |
| C=C1C[C@@H](O)[C@@H](Br)C(C)(C)[C@@]12C=CC(=O)CC2 | > 100 µM | > 100 µM | > 48.3 µM | > 100 µM | > 100 µM | > 100 µM | > 100 µM | > 100 µM | > 100 µM | > 100 µM |
| CC(=O)C(C(=O)c1ccc(C)cc1)[C@H]1OC(C)(C)O[C@H]1[C@H]1COC(C)(C)O1 (stereo partly drawn) | 16.9 µM |  | 11 µM |  | 10 µM | 31.6 µM | 12.8 µM | > 50 µM | 11.9 µM | 9.35 µM |
| O=c1[nH]nc(-c2ccccc2)n1/N=C/c1ccccc1O | > 100 µM |  | > 100 µM |  | > 100 µM | > 100 µM | > 100 µM | > 100 µM | > 100 µM | > 100 µM |
| Nc1[nH]c(=O)nc2snnc12 | > 100 µM | > 100 µM | > 100 µM | > 100 µM | > 100 µM | > 100 µM | > 28.8 µM | > 39.7 µM | > 100 µM | > 100 µM |
| O=C1CCCC/C1=C\c1ccc([N+](=O)[O-])cc1 | 51 µM | 30.4 µM | 32.1 µM | > 100 µM | 54.8 µM |  | 35.7 µM | 32.1 µM | 38.5 µM | > 100 µM |
| CC1CN=C(Nc2cccc(F)c2)S1 (stereo not drawn) | > 100 µM | > 100 µM | > 100 µM | > 100 µM | > 100 µM | > 100 µM | > 100 µM | > 100 µM | > 100 µM | > 100 µM |
| FC(F)(F)c1ccc2c(c1)nc1n2C(c2c(Cl)cccc2Cl)SC1 (stereo not drawn) | 33.6 µM |  | 47.7 µM | 67.5 µM | 60.1 µM | 50.9 µM | 35 µM |  | 42.9 µM | 31.9 µM |
| CCOC(=O)c1sc2c(c1OC(=O)c1cc(OC)c(OC)c(OC)c1)c(=O)n(-c1ccccc1)c(=S)n2-c1ccccc1 | > 100 µM | > 100 µM | > 100 µM | > 100 µM | > 100 µM | > 100 µM | > 100 µM | > 100 µM | > 100 µM | > 100 µM |
| O=C(N=Nc1ccc(Cl)cc1Cl)NNc1ccc(Cl)cc1Cl |  | 59.6 µM | 61.4 µM | 49.8 µM | 53 µM | 46.8 µM | 52.9 µM | 72.6 µM | 43.1 µM | 75.3 µM |
| COc1cc(/C=N/N=C(\N)NO)cc(OC)c1OC | 53.2 µM | > 100 µM | > 100 µM | 42.1 µM | > 100 µM | > 100 µM | > 100 µM | 49.2 µM | > 100 µM | > 100 µM |
| O=C1/C(=C\c2ccc(Br)cc2)CCCc2ccccc21 | 52.9 µM | 53 µM | 34.4 µM | 69 µM | 36.4 µM | 24.8 µM | 68.7 µM | > 100 µM | 39.6 µM | 30.4 µM |
| C[C@@H](C[C@H]1OC(C)(C)O[C@@H]1C(C)(C)O)[C@H]1CC=C2[C@]3(C)[C@H](O)C[C@H]4C(C)(C)[C@H](O)CC[C@]4(C)[C@H]3CC[C@]21C | 18.2 µM | 14.1 µM | 21.1 µM | 7.88 µM | 26.1 µM | 14.9 µM | 19.5 µM | 13.9 µM | 20.4 µM | 8.23 µM |
| N=c1oc2ccccc2cc1-c1nc2ccccc2[nH]1 | > 100 µM | > 100 µM | > 100 µM | 87 µM |  | > 100 µM | > 100 µM | 82.6 µM | > 100 µM | > 100 µM |
| COc1ccc(-c2c(-c3ccc(OC)cc3)n3c(=O)n(C)c(=O)n23)cc1 | > 100 µM | > 100 µM | > 100 µM |  | > 100 µM | > 100 µM | > 100 µM | > 100 µM | > 100 µM |  |
| N#Cc1c2ccc([N+](=O)[O-])cc2c(=O)n2c1[nH]c1ccc(C(F)(F)F)cc12 | 66.1 µM | > 100 µM | > 100 µM | > 100 µM | 65.3 µM | > 100 µM | > 100 µM | 45.7 µM | > 100 µM | > 47.4 µM |
| COc1ccc(C2=[S+]C(c3ccccc3)(c3ccccc3)c3ccccc32)cc1 | 88.8 µM | 88.9 µM | > 100 µM | 51.1 µM | 74.8 µM | 54.6 µM | > 100 µM | > 100 µM | 46.9 µM | 30.3 µM |
| CC(C)=NOC(=O)CNC(=O)C(Cc1ccccc1)NC(=O)C(C)NC(=O)OC(C)(C)C (stereo not drawn) | > 100 µM | > 100 µM | > 100 µM | > 100 µM | > 100 µM | > 100 µM | > 100 µM | > 100 µM | > 100 µM | > 100 µM |
| COc1ccc2cc(CNCCCCCCCCNCc3ccc4cc(OC)ccc4c3)ccc2c1 | 41.2 µM | 7.27 µM | > 100 µM | 15.2 µM | > 100 µM | > 100 µM | > 100 µM | 47.7 µM | 10.1 µM | 8.46 µM |
| CC[C@@H](CCCCC1CC[C@H]2CC(=O)C[C@@H]12)OC (stereo partly drawn) | > 100 µM | > 100 µM | > 100 µM | > 100 µM | > 100 µM | > 100 µM | > 100 µM | 80.1 µM | > 100 µM | > 100 µM |
| C1CCCCC2(CCCCCCCCC3(CCC1)SCCS3)SCCS2 | > 100 µM |  | > 100 µM | > 100 µM | > 100 µM | > 100 µM | > 100 µM | > 100 µM | > 100 µM | > 100 µM |
| CC12CC(=O)Nc3ccccc3N1C(c1ccccc1)=NO2 (stereo not drawn) | > 100 µM | > 100 µM | > 100 µM | > 100 µM | > 100 µM | > 100 µM | > 100 µM | > 100 µM | > 100 µM | > 100 µM |
| Cc1nc2ccc(S(=O)(=O)NS(=O)(=O)c3ccc(-c4ccccc4)cc3)cc2c(=O)n1NS(=O)(=O)c1ccc(-c2ccccc2)cc1 | > 100 µM | > 100 µM | > 100 µM | > 100 µM | > 100 µM | > 100 µM | > 100 µM | > 100 µM | > 100 µM | > 100 µM |

From PubChem BioAssay (NCI)
